{"source": "paper PMC4149780", "about": "“Structural basis for polyspecificity in the POT family of proton-coupled oligopeptide transporters” (EMBO Reports, 2014)", "type_in_all_cases": "biochemical, Streptococcus thermophilus", "key": {"PepTSt (WT)": {"tested_on": "PepTSt (WT)", "assay": "proton-driven [3H]-di-Ala uptake competition in reconstituted liposomes, WT transporter", "protocol": "(§1) PepTSt was reconstituted into Escherichia coli total lipids with egg PC liposomes and assayed using a proton-driven system as previously described.\nFigure S2. Substrate specificity profile for PepTSt.\n‘% residual transport ’ refers to competition for 3H-Ala-Ala uptake in the presence of 10 mM of the cold peptides indicated on the X-axis as a percentage of ‘no competitor’ peptide in a reconstituted proton driven uptake assay.Error bars indicate the standard deviation from three independent"}, "PepTSt Asn156Ala (N156A)": {"tested_on": "PepTSt Asn156Ala (N156A)", "assay": "proton-driven [3H]-di-Ala uptake competition in reconstituted liposomes, N156A variant", "from_the_text": "as §1"}, "PepTSt Trp427Phe (W427F)": {"tested_on": "PepTSt Trp427Phe (W427F)", "assay": "proton-driven [3H]-di-Ala uptake competition in reconstituted liposomes, W427F variant", "from_the_text": "as §1"}, "PepTSt Tyr29Phe (Y29F)": {"tested_on": "PepTSt Tyr29Phe (Y29F)", "assay": "proton-driven [3H]-di-Ala uptake competition in reconstituted liposomes, Y29F variant", "from_the_text": "as §1"}}, "note": "pIC50: −log10 of the molar value."}
{"substance": "tri-glycine", "values": [{"measurement": "% residual transport (competition for 3H-Ala-Ala uptake), result in words", "setting": "PepTSt (WT); 10 mM cold peptide, reconstituted proton driven uptake assay, WT PepTSt", "result": "not able to compete effectively"}]}
{"substance": "L-Ala-L-Ala [Ala-Ala]", "values": [{"measurement": "pIC50", "setting": "PepTSt Asn156Ala (N156A)", "result": 4.07}, {"measurement": "pIC50", "setting": "PepTSt Trp427Phe (W427F)", "result": 4.46}, {"measurement": "pIC50", "setting": "PepTSt (WT); WT PepTSt in liposomes, proton-driven uptake", "result": 4.43}, {"measurement": "pIC50", "setting": "PepTSt Tyr29Phe (Y29F)", "result": 4.40}]}
